# How the values were obtained:
# Cytochrome P450 3A4 = Cytochrome P450 3A4 (Homo sapiens, UniProt P08684);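 note: CYP3A4 tested as one member of a cytochrome P450 panel screen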
# Cytochrome P450 1A2 = molecular target: T1, Cytochrome P450 1A2 (Homo sapiens, UniProt P05177);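 note: PubChem cytochrome P450 panel assay, CYP1A2 panel member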
# T1 sequence (P05177 whole entry): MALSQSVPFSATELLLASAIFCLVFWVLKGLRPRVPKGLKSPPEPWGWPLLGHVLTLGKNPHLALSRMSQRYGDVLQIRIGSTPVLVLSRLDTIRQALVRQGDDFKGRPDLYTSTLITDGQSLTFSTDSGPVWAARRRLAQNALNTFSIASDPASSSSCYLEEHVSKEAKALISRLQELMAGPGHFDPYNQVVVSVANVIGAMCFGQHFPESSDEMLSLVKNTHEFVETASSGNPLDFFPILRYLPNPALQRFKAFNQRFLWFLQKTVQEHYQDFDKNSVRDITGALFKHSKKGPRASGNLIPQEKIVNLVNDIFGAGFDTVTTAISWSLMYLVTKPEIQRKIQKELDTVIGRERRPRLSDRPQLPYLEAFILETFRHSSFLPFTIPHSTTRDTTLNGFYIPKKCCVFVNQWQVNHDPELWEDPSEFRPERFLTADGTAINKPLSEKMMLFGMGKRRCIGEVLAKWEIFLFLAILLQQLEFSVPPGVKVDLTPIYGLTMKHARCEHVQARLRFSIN
# Cytochrome P450 2D6 = Cytochrome P450 2D6 (Homo sapiens, UniProt P10635);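 note: CYP2D6 member of a cytochrome P450 panel assay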
# Cytochrome P450 2C19 = Cytochrome P450 2C19 (Homo sapiens, UniProt P33261); test: Cytochrome panel assay with activity outcomes. Panel member name: p450-cyp2c19 Compounds with AC50 equal or less than 10 uM are considered active; format: functional; settings: read-out: AC50
# Cytochrome P450 2C9 = Cytochrome P450 2C9 (Homo sapiens, UniProt P11712)
# Cytochrome P450 2C9, sequence (P11712 whole entry): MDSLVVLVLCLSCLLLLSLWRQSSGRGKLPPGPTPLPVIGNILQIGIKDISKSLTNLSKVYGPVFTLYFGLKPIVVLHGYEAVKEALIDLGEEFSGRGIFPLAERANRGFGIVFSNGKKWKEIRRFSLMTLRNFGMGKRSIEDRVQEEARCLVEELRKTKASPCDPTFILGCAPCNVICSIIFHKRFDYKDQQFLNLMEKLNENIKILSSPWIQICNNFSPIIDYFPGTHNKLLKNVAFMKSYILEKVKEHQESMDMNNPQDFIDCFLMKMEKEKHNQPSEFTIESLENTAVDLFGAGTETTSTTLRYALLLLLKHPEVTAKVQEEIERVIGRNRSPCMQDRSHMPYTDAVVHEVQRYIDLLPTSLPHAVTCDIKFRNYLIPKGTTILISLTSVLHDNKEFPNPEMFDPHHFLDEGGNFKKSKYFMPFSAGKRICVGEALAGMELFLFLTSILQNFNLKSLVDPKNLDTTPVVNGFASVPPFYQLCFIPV
# Cytochrome P450 2C19, sequence (P33261 whole entry): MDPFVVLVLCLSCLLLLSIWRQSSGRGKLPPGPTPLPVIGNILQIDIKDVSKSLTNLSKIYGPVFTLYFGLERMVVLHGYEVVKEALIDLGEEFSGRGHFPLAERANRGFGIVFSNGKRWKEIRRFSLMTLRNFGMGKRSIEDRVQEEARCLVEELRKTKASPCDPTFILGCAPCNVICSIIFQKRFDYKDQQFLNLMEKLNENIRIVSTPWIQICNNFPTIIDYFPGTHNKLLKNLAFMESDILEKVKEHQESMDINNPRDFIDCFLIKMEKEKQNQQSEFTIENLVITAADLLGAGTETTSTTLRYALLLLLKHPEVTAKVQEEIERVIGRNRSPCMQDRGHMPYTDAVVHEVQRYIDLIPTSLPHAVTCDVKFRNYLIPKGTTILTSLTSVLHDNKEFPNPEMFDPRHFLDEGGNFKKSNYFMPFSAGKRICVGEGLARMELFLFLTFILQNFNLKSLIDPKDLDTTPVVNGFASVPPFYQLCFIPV
# Cytochrome P450 3A4, sequence (P08684 whole entry): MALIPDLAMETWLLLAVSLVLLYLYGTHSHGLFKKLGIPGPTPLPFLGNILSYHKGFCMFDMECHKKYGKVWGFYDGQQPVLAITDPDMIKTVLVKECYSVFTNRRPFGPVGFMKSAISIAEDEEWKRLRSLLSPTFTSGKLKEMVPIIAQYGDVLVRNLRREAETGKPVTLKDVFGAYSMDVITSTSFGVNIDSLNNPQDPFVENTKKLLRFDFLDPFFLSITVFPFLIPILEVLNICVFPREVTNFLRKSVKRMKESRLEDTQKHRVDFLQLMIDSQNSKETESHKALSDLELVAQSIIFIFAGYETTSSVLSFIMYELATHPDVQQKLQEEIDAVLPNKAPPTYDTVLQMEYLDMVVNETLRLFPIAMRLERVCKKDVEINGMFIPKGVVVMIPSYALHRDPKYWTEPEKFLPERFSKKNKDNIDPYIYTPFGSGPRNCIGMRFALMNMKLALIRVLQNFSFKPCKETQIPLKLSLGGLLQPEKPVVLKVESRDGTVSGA
# Cytochrome P450 2D6, sequence (P10635 whole entry): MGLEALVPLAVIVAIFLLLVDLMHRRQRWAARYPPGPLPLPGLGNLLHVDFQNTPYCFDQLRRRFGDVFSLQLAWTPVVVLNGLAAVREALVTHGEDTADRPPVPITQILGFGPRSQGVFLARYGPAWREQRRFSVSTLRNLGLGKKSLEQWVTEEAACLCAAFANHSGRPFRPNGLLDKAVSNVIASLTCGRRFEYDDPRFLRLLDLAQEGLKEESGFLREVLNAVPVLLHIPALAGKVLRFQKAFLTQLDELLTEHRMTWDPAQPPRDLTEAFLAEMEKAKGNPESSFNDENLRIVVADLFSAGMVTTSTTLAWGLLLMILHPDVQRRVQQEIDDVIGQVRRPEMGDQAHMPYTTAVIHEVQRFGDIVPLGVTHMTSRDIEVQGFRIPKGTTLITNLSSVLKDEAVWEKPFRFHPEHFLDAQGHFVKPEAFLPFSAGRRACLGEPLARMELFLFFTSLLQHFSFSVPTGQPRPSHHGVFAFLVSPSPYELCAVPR
Structure (SMILES),AC50 (Cytochrome P450 3A4),AC50 (Cytochrome P450 1A2),AC50 (Cytochrome P450 2D6),AC50 (Cytochrome P450 2C19),AC50 (Cytochrome P450 2C9)
CCOC(=O)C1=C(C)N=C2SC(C(=O)OC)=CC(=O)N2C1c1ccc(F)cc1 (stereo unspecified),inconclusive,31.6 µM (inconclusive),12.6 µM (inconclusive),–,–
COC(=O)N1CCC2(CC1)CN(c1ccccn1)C2,inconclusive,–,10 µM (inconclusive),–,–
Oc1ccc2[nH]cc(CCCCN3CC=C(c4ccccc4)CC3)c2c1 [ROXINDOLE],inconclusive,–,–,20 µM (inconclusive),12.6 µM (inconclusive)

# Second part, led by results:
AC50 (Cytochrome P450 3A4),AC50 (Cytochrome P450 1A2),AC50 (Cytochrome P450 2D6),AC50 (Cytochrome P450 2C19),Structure (SMILES),AC50 (Cytochrome P450 2C9)
inconclusive,12.6 µM (inconclusive),–,–,O=C(c1cccc(F)c1)N1CCC2(CC1)CN(c1cccc(-c3ccccc3)c1)C2,–
inconclusive,–,–,39.8 µM (inconclusive),Cn1c(=O)c(-c2ccccc2)nc2cnc(N3CCOCC3)nc21,39.8 µM (inconclusive)
inconclusive,1 µM (inconclusive),–,0.158 µM (inconclusive),O=C(c1ccco1)N1CCC2(CC1)CN(c1ccc(-c3ccccc3)cc1)C2,–
